Assay results reported in ChEMBL document CHEMBL4402531, “Recent advances in α,β-unsaturated carbonyl compounds as mitochondrial toxins” (Eur J Med Chem, 2019).

Experiments:
PC-3 [1] = test: Cytotoxicity against human PC3 cells assessed as reduction in cell viability; type: functional, cell-based
HL-60 = test: Cytotoxicity against human HL60 cells assessed as reduction in cell viability; type: functional, cell-based
K562 [2] = test: Induction of apoptosis in human K562 cells; type: functional, cell-based
K562 [3] = test: Cell cycle arrest in human K562 cells assessed as accumulation at G0 phase; type: functional, cell-based
K562 [4] = test: Cell cycle arrest in human K562 cells assessed as accumulation at G1 phase; type: functional, cell-based
HCT-116 = test: Cytotoxicity against human HCT116 cells assessed as reduction in cell viability after 72 hrs by MTT assay; type: functional, cell-based; conditions: HCT-116, 72 h
CNE-2 = test: Cytotoxicity against human CNE2 cells assessed as reduction in cell viability after 48 hrs; type: functional, cell-based; conditions: CNE-2, 48 h
CNE = test: Cytotoxicity against human CNE1 cells assessed as reduction in cell viability after 48 hrs; type: functional, cell-based
HGC-27 = test: Cytotoxicity against human HGC27 cells assessed as reduction in cell viability after 24 hrs by MTT assay; type: functional, cell-based; conditions: HGC-27, 24 h
MGC-803 = test: Cytotoxicity against human MGC803 cells assessed as reduction in cell viability after 24 hrs by MTT assay; type: functional, cell-based; conditions: MGC-803, 24 h
SGC-7901 = test: Cytotoxicity against human SGC7901 cells assessed as reduction in cell viability after 24 hrs by MTT assay; type: functional, cell-based; conditions: SGC-7901, 24 h
[5] = biological target: Dual specificity mitogen-activated protein kinase kinase; MEK1/2 (Homo sapiens) (UniProt P36507+Q02750); test: Inhibition of MEK (unknown origin) phosphorylation relative to control; type: protein assay; conditions: concentration not given here
[6] = biological target: RAF proto-oncogene serine/threonine-protein kinase (Homo sapiens) (UniProt P04049); test: Inhibition of c-RAF (unknown origin) phosphorylation relative to control; conditions: concentration not given here
Homo sapiens = species on record: Homo sapiens; test: Inhibition of ERK (unknown origin) phosphorylation relative to control; conditions: concentration not given here
U2OS = test: Cytotoxicity against human U2OS cells assessed as reduction in cell viability after 48 hrs; type: functional, cell-based
MG-63 = test: Cytotoxicity against human MG63 cells assessed as reduction in cell viability after 48 hrs; type: functional, cell-based; conditions: MG-63, 48 h
HeLa [7] = test: Cytotoxicity against human HeLa cells assessed as reduction in cell viability; type: functional, cell-based
MCF7 [8] = test: Cytotoxicity against human MCF7 cells assessed as reduction in cell viability; type: functional, cell-based
SiHa [9] = test: Cytotoxicity against human SiHa cells assessed as reduction in cell viability after 72 hrs; type: functional, cell-based
HeLa [10] = test: Cytotoxicity against human HeLa cells assessed as reduction in cell viability after 72 hrs by MTT assay; type: functional, cell-based
PC-12 = test: Cytotoxicity against rat PC12 cells assessed as reduction in cell viability after 48 hrs by MTT assay; type: functional, cell-based; conditions: PC-12, 48 h
SiHa [11] = test: Cytotoxicity against human SiHa cells assessed as reduction in cell viability after 72 hrs by MTT assay; type: functional, cell-based
Ca-Ski = test: Cytotoxicity against human CaSki cells assessed as reduction in cell viability after 72 hrs; type: functional, cell-based
L02 = test: Cytotoxicity against human LO2 cells assessed as reduction in cell viability after 48 hrs by MTT assay; type: functional, cell-based; conditions: L02, 48 h
HeLa [12] = test: Cytotoxicity against human HeLa cells assessed as reduction in cell viability after 72 hrs; type: functional, cell-based
C-33-A = test: Cytotoxicity against human C33A cells assessed as reduction in cell viability after 72 hrs; type: functional, cell-based
HK-2 = test: Cytotoxicity against human HK2 cells assessed as reduction in cell viability after 24 to 48 hrs by MTT assay; type: cell-based
MDA-MB-231 = test: Cytotoxicity against human MDA-MB-231 cells assessed as reduction in cell viability after 24 to 48 hrs by MTS assay; type: functional, cell-based
SiHa [13] = test: Cytotoxicity against human SiHa cells assessed as reduction in cell viability after 24 hrs by MTT assay; type: functional, cell-based
HeLa [14] = test: Cytotoxicity against human HeLa cells assessed as reduction in cell viability after 24 hrs by MTT assay; type: functional, cell-based
MCF7 [15] = test: Cytotoxicity against human MCF7 cells assessed as reduction in cell viability after 24 to 48 hrs by MTS assay; type: functional, cell-based
NCI-H28 = test: Cytotoxicity against human NCI-H28 cells assessed as reduction in cell viability after 24 to 48 hrs by MTS assay; type: functional, cell-based
MSTO-211H = test: Cytotoxicity against human MSTO-211H cells assessed as reduction in cell viability after 24 to 48 hrs by MTS assay; type: functional, cell-based
WI-38 = test: Cytotoxicity against human WI38 cells assessed as reduction in cell viability after 24 to 48 hrs by MTT assay; type: cell-based
HepG2 = test: Growth inhibition of human HepG2 cells; type: functional, cell-based
PC-3 [16] = test: Cytotoxicity against human PC3 cells assessed as reduction in cell viability relative to control; type: functional
MCF7 [17] = test: Cytotoxicity against human MCF7 cells assessed as reduction in cell viability at 0.01 uM after 48 hrs by fluorescence assay relative to control; type: functional
MCF7 [18] = test: Cytotoxicity against human MCF7 cells assessed as reduction in cell viability at 5 uM after 48 hrs by fluorescence assay relative to control; type: functional
LNCaP = test: Cytotoxicity against human LNCAP cells assessed as reduction in cell viability relative to control; type: functional
LNCaP C4-2 = test: Cytotoxicity against human C4-2 cells assessed as reduction in cell viability relative to control; type: functional
DU-145 = test: Cytotoxicity against human DU145 cells assessed as reduction in cell viability relative to control; type: functional

Sequence of RAF proto-oncogene serine/threonine-protein kinase (Homo sapiens) (P04049 whole entry): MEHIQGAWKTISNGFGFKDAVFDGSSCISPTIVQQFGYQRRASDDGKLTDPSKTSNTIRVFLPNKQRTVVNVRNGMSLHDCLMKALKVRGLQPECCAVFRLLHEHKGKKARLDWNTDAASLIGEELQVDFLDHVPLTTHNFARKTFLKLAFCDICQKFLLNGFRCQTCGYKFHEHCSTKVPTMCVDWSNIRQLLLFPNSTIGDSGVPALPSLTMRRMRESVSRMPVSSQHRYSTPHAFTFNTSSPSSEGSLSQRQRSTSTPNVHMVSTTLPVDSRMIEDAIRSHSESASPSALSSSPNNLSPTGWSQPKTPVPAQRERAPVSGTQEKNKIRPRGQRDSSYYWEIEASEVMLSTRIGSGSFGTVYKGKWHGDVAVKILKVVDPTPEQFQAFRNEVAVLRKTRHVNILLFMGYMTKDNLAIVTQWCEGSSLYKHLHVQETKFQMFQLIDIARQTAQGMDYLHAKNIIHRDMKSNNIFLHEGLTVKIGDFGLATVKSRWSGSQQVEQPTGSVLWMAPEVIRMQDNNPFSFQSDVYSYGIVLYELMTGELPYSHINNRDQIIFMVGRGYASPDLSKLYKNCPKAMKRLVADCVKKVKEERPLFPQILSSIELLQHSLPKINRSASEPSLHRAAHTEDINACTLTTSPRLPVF
Sequence of Dual specificity mitogen-activated protein kinase kinase; MEK1/2 (Homo sapiens) (P36507 whole entry, looked up): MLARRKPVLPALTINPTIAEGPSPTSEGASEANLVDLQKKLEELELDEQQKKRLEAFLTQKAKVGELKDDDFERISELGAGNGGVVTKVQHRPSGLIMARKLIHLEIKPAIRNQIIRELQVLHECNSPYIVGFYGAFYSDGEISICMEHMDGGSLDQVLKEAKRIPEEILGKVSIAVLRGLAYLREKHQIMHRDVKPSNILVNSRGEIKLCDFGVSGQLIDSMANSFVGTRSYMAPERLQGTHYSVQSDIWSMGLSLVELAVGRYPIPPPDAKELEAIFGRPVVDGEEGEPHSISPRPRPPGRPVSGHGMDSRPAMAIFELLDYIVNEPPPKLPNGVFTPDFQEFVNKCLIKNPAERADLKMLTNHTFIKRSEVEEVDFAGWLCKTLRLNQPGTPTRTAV
Sequence of Dual specificity mitogen-activated protein kinase kinase; MEK1/2 (Homo sapiens) (Q02750 whole entry, looked up): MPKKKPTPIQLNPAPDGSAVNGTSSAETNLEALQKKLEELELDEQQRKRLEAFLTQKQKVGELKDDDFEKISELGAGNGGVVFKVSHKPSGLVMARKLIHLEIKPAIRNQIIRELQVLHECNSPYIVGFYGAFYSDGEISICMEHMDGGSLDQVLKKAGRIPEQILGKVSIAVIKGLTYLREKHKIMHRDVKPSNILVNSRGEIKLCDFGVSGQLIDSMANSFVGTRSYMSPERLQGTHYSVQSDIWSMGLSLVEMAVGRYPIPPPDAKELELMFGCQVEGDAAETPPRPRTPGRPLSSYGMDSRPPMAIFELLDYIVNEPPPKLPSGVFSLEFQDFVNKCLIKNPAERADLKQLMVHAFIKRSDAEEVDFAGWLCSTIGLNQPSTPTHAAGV

COc1ccc(C(=O)/C=C/c2ccccc2)c(O)c1
IC50 (PC-3 [1]): 8.08 to 13.8 µM

CCn1cc(C(=O)O)c(=O)c2c3c(ccc21)NC(=O)/C3=C1/C(=O)Nc2ccc(Cl)cc21
IC50 (HL-60): 4.27 µM

COc1cc(/C=C/C(=O)C(=Cc2ccncc2)C(=O)/C=C/c2ccc(O)c(OC)c2)ccc1O
IC50 (K562 [2]): 0.4 to 3.2 µM
IC50 (K562 [3]): 0.6 µM
IC50 (K562 [4]): 0.4 to 3.2 µM

CC(=O)Oc1ccc(C(=O)/C=C/c2ccccc2)c(O)c1
IC50 (PC-3 [1]): 8.08 to 13.8 µM

COc1cccc(OC)c1C(=O)/C=C/c1c2ccccc2nc2ccccc12
IC50 (HCT-116): 4.2 µM

CCOc1ccc(C(=O)/C=C/c2ccccc2)c(O)c1
IC50 (PC-3 [1]): 8.08 to 13.8 µM

C=C1C(=O)[C@]23[C@H](O)[C@@H]1CC[C@H]2[C@]12CCCC(C)(C)[C@H]1[C@H](O)[C@@]3(O)OC2
IC50 (CNE-2): 1.52 µM
IC50 (CNE): 1.26 µM

CCCOc1ccc(C(=O)/C=C/c2ccccc2)c(O)c1
IC50 (PC-3 [1]): 8.08 to 13.8 µM

COc1ccc(Br)cc1C(=O)/C=C/c1ccc(S(C)(=O)=O)cc1
IC50 (HGC-27): 3.57 to 5.61 µM
IC50 (MGC-803): 3.57 to 5.61 µM
IC50 (SGC-7901): 3.57 to 5.61 µM

O=C(/C=C/c1ccc(O)cc1)/C(C(=O)Nc1ccccc1)=C(O)/C=C/c1ccc(O)cc1
inhibition [5]: 91%
inhibition [6]: 93%
inhibition (Homo sapiens): 87%

O=C(/C=C/c1ccccc1)c1ccc(O)cc1O [2',4'-DIHYDROXYCHALCONE]
IC50 (PC-3 [1]): 8.08 to 13.8 µM

O=C(/C=C(\O)c1ccccc1)c1ccccc1O [2',beta-DIHYDROXYCHALCONE]
IC50 (U2OS): 19.6 µM
IC50 (MG-63): 23.8 µM

COc1cc(O)c(C(=O)/C=C/c2ccccc2)c2c1C=CC(C)(CCC=C(C)C)O2 (stereo not given) [BOESENBERGIN A]
IC50 (HeLa [7]): 20 µM
IC50 (MCF7 [8]): 20 µM

O=C(/C=C/c1ccc(O)cc1)c1ccc(O)cc1O [ISOLIQUIRITIGENIN]
IC50 (SiHa [9]): 53.8 µM
IC50 (HeLa [10]): 58.1 µM
IC50 (PC-12): 17.8 µM
IC50 (SiHa [11]): 53.8 µM
IC50 (Ca-Ski): 39.1 µM
IC50 (L02): > 1000 µM
IC50 (HeLa [12]): 58.1 µM
IC50 (C-33-A): 32.8 µM

C=CC(C)(C)c1cc(/C=C/C(=O)c2ccc(O)cc2)c(OC)cc1O [LICOAGROCHACONE A]
IC50 (HK-2): 88.7 µM
IC50 (MDA-MB-231): 22 µM
IC50 (SiHa [13]): 42.2 µM
IC50 (HeLa [14]): 48.5 µM
IC50 (MCF7 [15]): 22 µM
IC50 (NCI-H28): 30 µM
IC50 (MSTO-211H): 26 µM
IC50 (WI-38): 90.2 µM

CCCCC/C=C/C(=O)CCc1ccc(O)c(OC)c1 [SHOGAOL]
IC50 (HepG2): 88 µM

COc1cc(O)c(CC=C(C)C)c(O)c1C(=O)/C=C/c1ccc(O)cc1 [XANTHOHUMOL]
Activity (PC-3 [16]): 42%
Activity (MCF7 [17]): 39.6%
Activity (MCF7 [18]): -57.3%
Activity (LNCaP): 41%
Activity (LNCaP C4-2): 30%
Activity (DU-145): 38%
